# Test system: IFNγ response of splenocytes
# Test: IFNγ ELISpot assay on splenocytes of vaccinated Balb/c mice
# Type: in vivo
# Details: splenocytes of mice vaccinated with Ancer-selected CT26 Neoantigen Peptides+Poly-ICLC, stimulated overnight; positive = >50 SFC/million over background and stimulation index >2-fold
# Description: Balb/c mice were separated into three groups: A) Vehicle control; B) Ancer™-selected CT26 Neoantigen Peptides+adjuvant; C) Ancer™-selected CT26 Neoantigen Peptides+JANUSMATRIX™ MHC class II selected peptides+adjuvant. All vaccines were formulated with the addition of the adjuvant Poly-ICLC. Poly-ICLC, also known as Hiltonol, is a synthetic double-stranded RNA (dsRNA) agonist for pattern recognition receptors (PRRs), and TLR3 agonist. Groups A, B, and C received an initial vaccination with subsequent boosts of vaccine at 2- and 4-weeks post initial vaccination. All mice are sacrificed at 7-10 days after the final boost and spleens were harvested for splenocyte isolation and IFNγ ELISpot assay.
# Group A: 50 ug Poly-ICLC in 200 uL
# Group B: 20 Ancer™-selected CT26 Neoantigen Peptides at 5 ug/peptide, 100 ug total peptide, 50 ug Poly-ICLC, 200 uL […]
# Isolated splenocytes were plated and stimulated with Ancer™-selected CT26 Neoantigen Peptides (CT26 pool), JANUSMATRIX™ selected peptides (CT26-Treg_pool), class I peptide pool, as well as individual Ancer™-selected CT26 Neoantigen peptide CT26-1 (CT26_peptide 1) and CT26-20 ([…]). Plates were incubated overnight and then read. […] Statistical significance was determined by Student's T-test; per mouse—antigen vs. no antigen stimulus, as well as group comparisons (p<0.05).
substance,measurement,value
Ac-LQARLTSYETLK-NH2 [CT26-1],epitope-specific IFNγ response on recall stimulation (immunogenic),significant epitope-specific IFNγ response
